The source of these data is the RepoRT retention time repository (doi:10.1021/acs.analchem.2c02893).

This series can be described thus: RP, Thermo Scientific Acclaim RSLC 120 C18, 100 × 2.1 mm, 2.2 µm, 30 °C, 0.2 mL/min, estimated dead time 1.1 min; A: 90% water + 10% methanol + 0.01% formic acid + 5 mM ammonium formate, pH 3.61; B: methanol + 0.01% formic acid + 5 mM ammonium formate, pH 3.61; gradient (min/%B) 0/1 1/1 2/39 13/99.9 15/99.9 15.1/1 20.1/1. The note with it: stereoisomer not certain.
As for `c1ccc2c(c1)Cc1ccccc1N1CCNCC21` (stereo not given) [Mianserine-Nor], the LC retention time is 6.86 min. For the molecule `CN1CCN2c3ccccc3Cc3ccccc3C2C1` (stereo not given) [Mianserine], the LC retention time was 6.94 min. Take `Clc1ccc(COC(Cn2ccnc2)c2ccc(Cl)cc2Cl)c(Cl)c1` (stereo not given) [Miconazole]: the LC retention time was 13 min. Turning to `OCc1ncc2n1-c1ccc(Cl)cc1C(c1ccccc1F)=NC2` [Midazolam -1-Hydroxy], the LC retention time is 8.44 min. `Cc1ncc2n1-c1ccc(Cl)cc1C(c1ccccc1F)=NC2` [Midazolam]: the LC retention time was 8.63 min. The figure for `CC#CC1(O)CCC2C3CCC4=CC(=O)CCC4=C3C(c3ccc(N(C)C)cc3)CC21C` (stereo not given) [Mifepristone] is 11.1 min; for `CCN(CC)C(=O)C1(c2ccccc2)CC1CN` (stereo not given) [Milnacipran] it is 5.73 min. As for `N=c1nc(N2CCCCC2)cc(N)n1O` [Minoxidil], the figure is 4.88 min; as for `CCCOc1ccc(S(=O)(=O)N2CCN(CCO)CC2)cc1-c1nc2c(CCC)cn(CC)c2c(=O)[nH]1` [Mirodenafil], 9.49 min. As for `CN1CCN2c3ncc(O)cc3Cc3ccccc3C2C1` (stereo not given) [Mirtazapine- 8-OH], the figure is 4.54 min. With `c1ccc2c(c1)Cc1cccnc1N1CCNCC21` (stereo not given) [Mirtazapine-Desmethyl (normirtazapine)], the LC retention time was 5.31 min. Regarding `CN1CCN2c3ncccc3Cc3ccccc3C2C1` (stereo not given) [Mirtazapine], the LC retention time is 5.29 min. As for `CCC1CN2CCC3(O)C(=Nc4cccc(OC)c43)C2CC1C(=COC)C(=O)OC` (stereo not given) [Mitragynine-7-Hydroxy], the figure is 5.95 min. The figure for `CN(c1nccc(=O)[nH]1)C1CCN(c2nc3ccccc3n2Cc2ccc(F)cc2)CC1` [Mizolastine] is 9.14 min; for `O=C(NCCN1CCOCC1)c1ccc(Cl)cc1` [Moclobemide] it is 4.98 min. With `NC(=O)CS(=O)C(c1ccccc1)c1ccccc1` (stereo not given) [Modafinil], the LC retention time was 6.76 min.

For the molecule `CCSC(=O)N1CCCCCC1` [Molinate], the LC retention time was 9.89 min.

As to `CCc1c(C)[nH]c2c1C(=O)C(CN1CCOCC1)CC2` (stereo not given) [Molindone], the LC retention time was 4.89 min. For the molecule `CC1CC2C3CCC4=CC(=O)C=CC4(C)C3(Cl)C(O)CC2(C)C1(OC(=O)c1ccco1)C(=O)CCl` (stereo not given) [Mometasone fuorate], the LC retention time is 10.6 min. On to `CCC1(C2OC(C3OC(O)(CO)C(C)CC3C)CC2C)CCC(C2(C)CCC3(CC(O)C(C)C(C(C)C(OC)C(C)C(=O)O)O3)O2)O1` (stereo not given) [Monensin], for which the LC retention time was 13.8 min. With `CC1C(=O)OC2CC[N+]3([O-])CC=C(COC(=O)C(C)(O)C1(C)O)C23` (stereo not given) [Monocrotaline-N-oxide], the LC retention time was 3.19 min. As for `CC1C(=O)OC2CCN3CC=C(COC(=O)C(C)(O)C1(C)O)C23` (stereo not given) [Monocrotaline], the figure is 2.92 min; as for `CNC(=O)C=C(C)OP(=O)(OC)OC` [Monocrotophos], 4.36 min. The figure for `CON(C)C(=O)Nc1ccc(Cl)cc1` [Monolinuron] is 7.76 min; for `CC(C)(O)c1ccccc1CCC(SCC1(CC(=O)O)CC1)c1cccc(C=Cc2ccc3ccc(Cl)cc3n2)c1` (stereo not given) [Montelukast] it is 13.4 min. As for `CN(C)C(=O)Nc1ccc(Cl)cc1` [Monuron], the figure is 6.9 min; as for `Cc1ccc(C2(O)CCN(CCCC(=O)c3ccc(F)cc3)CC2)cc1` [Moperone], 6.59 min; as for `Cc1ccsc1C=CC1=NCCCN1C` [Morantel], 4.36 min. Take `CN1CCC23c4c5ccc(OC6OC(C(=O)O)C(O)C(O)C6O)c4OC2C(O)C=CC3C1C5` [Morphine-3-beta-D-glucuronide]: the LC retention time is 1.63 min. The figure for `CN1CCC23c4c5ccc(O)c4OC2C(O)CCC3C1C5` (stereo not given) [Morphine-Dihydro] is 2.66 min; for `CCOc1ccc2c3c1OC1C(O)C=CC4C(C2)N(C)CCC341` (stereo not given) [Morphine-Ethyl] it is 4.08 min; for `Oc1ccc2c3c1OC1C(O)C=CC4C(C2)NCCC341` (stereo not given) [Morphine-Nor] it is 2.71 min. As for `CCc1cc2cc(OC)c(OC)cc2c(Cc2ccccc2)n1` [Moxaverine], the figure is 8.29 min.

As to `CON=C1CC2(CC3CC(CC=C(C)CC(C)C=CC=C4COC5C(O)C(C)=CC(C(=O)O3)C45O)O2)OC(C(C)=CC(C)C)C1C` (stereo not given) [Moxidectin], the LC retention time is 13.8 min.

Consider `COc1c(N2CC3CCCNC3C2)c(F)cc2c(=O)c(C(=O)O)cn(C3CC3)c12` (stereo not given) [Moxifloxacin], for which the LC retention time is 5.17 min. Consider `CC(=O)Oc1cc(C(C)C)c(OCCN(C)C)cc1C` [Moxisylyte], for which the LC retention time is 6.21 min. The figure for `COc1nc(C)nc(Cl)c1NC1=NCCN1` [Moxonidine] is 3.26 min. The figure for `CCCCC(C#N)(Cn1cncn1)c1ccc(Cl)cc1` (stereo not given) [Myclobutanil] is 9.74 min; for `COc1c(C)c2c(c(O)c1CC=C(C)CCC(=O)O)C(=O)OC2` [Mycophenolic acid] it is 8.79 min; for `CN=CNc1ccc(C)cc1C` [N'-(2 4-Dimethylphenyl)-N-methylformamidine] it is 4.44 min.

In the case of `CCCCCCCCCCN(C)C` [N,N-Dimethyldecylamine], the LC retention time is 8.59 min. The figure for `CCCCCCCCCCCC[N+](C)(C)[O-]` [N,N-Dimethyldodecylamine N-oxide] is 11.2 min. The figure for `CCCCCCCCCCCCN(C)C` [N,N-Dimethyldodecylamine] is 10.4 min. The figure for `CN(C)S(N)(=O)=O` [N,N-Dimethylsulfamide] is 2.02 min; for `CCCCCCCCCCCCCC[N+](C)(C)[O-]` [N,N-Dimethyltetradecylamine-N-oxide] it is 12.6 min; for `CCCCCCCCCCCCCCN(C)C` [N,N-Dimethyltetradecylamine] it is 11.8 min. On to `Cc1ccc(NC=O)c(C)c1` [N-2-4-Dimethylphenylformamide (DMF. Metabolite Amitraz)], for which the LC retention time is 6.67 min. As for `CC(=O)Nc1ccc(O)c(C(=O)O)c1` [N-Acetyl mesalazine], the figure is 3.43 min; as for `c1ccc2sc(NC3CCCCC3)nc2c1` [N-Cyclohexyl-2-benzothiazol-amine], 10.9 min; as for `CN1CCCC1=O` [N-Methyl-2-pyrrolidone], 3.1 min.

For `CCCCCCCCCCCCNC` [N-Methyldodecylamine], the LC retention time was 10.5 min. As for `CCNC(=O)c1ccc(OC)cc1` [N-ethyl-4-methoxybenzamide], the figure is 5.59 min; as for `O=C(c1cccc2ccccc12)c1cn(CC2CCCCC2)c2ccccc12` [NE-CHMIMO], 13 min; as for `O=C(Oc1cccc2ccccc12)c1cn(CCCCCF)c2ccccc12` [NM-2201], 12.4 min. In the case of `CCCCCn1cc(C(=O)Nc2cccc3ccccc23)c2ccccc21` [NNEI], the LC retention time was 11.7 min.
